Non-standard residues stand in square brackets, D forms with d. Residues, ends and D or L forms follow the SMILES beside them.
Molecular target: T1, Galanin receptor type 2 (Rattus norvegicus, UniProt O08726)
T1 sequence (O08726 whole entry): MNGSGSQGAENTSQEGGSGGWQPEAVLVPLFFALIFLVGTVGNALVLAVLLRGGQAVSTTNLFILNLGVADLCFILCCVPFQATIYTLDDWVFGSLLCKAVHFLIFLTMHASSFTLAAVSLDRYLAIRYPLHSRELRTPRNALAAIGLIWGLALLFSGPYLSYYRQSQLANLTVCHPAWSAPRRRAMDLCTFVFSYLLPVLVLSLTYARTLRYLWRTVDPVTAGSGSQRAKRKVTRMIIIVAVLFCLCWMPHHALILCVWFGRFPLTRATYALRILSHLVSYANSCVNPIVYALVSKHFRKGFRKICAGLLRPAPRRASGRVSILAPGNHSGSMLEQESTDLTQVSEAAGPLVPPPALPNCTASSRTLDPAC

Ki	Molecule
1000 nM	CC[C@H](C)[C@H](NC(=O)[C@H](C)NC(=O)[C@H](Cc1c[nH]cn1)NC(=O)[C@@H]1CCCN1C(=O)CNC(=O)[C@H](CC(C)C)NC(=O)[C@H](CC(C)C)NC(=O)[C@H](Cc1ccc(O)cc1)NC(=O)CNC(=O)[C@H](C)NC(=O)[C@H](CO)NC(=O)[C@H](CC(N)=O)NC(=O)[C@H](CC(C)C)NC(=O)[C@@H](N)[C@@H](C)O)C(=O)N[C@@H](CC(=O)O)C(=O)N[C@@H](CC(N)=O)C(=O)N[C@@H](Cc1c[nH]cn1)C(=O)N[C@@H](CCCNC(=N)N)C(=O)N[C@@H](CO)C(=O)N[C@@H](Cc1ccccc1)C(=O)N[C@@H](CO)C(=O)N[C@@H](CC(=O)O)C(=O)N[C@@H](CCCCN)C(=O)N[C@@H](Cc1c[nH]cn1)C(=O)NCC(=O)N[C@@H](CC(C)C)C(=O)N[C@H](C(N)=O)[C@@H](C)O [Galanin (3-29), rat]
1.9 nM	H-GWTLNSAGYLLGPPPALALA-NH2 [M40]
23 nM	CC(C)C[C@H](NC(=O)[C@H](CC(C)C)NC(=O)[C@@H](Cc1c[nH]c2ccccc12)NC(=O)[C@H](Cc1ccccc1)NC(=O)[C@@H](Cc1c[nH]c2ccccc12)NC(=O)[C@H](CCC(N)=O)NC(=O)[C@H](CCC(N)=O)NC(=O)[C@@H]1CCCN1C(=O)[C@H](CCCCN)NC(=O)[C@@H]1CCCN1C(=O)[C@@H](CCCNC(=N)N)NC(=O)[C@@H]1CCCN1C(=O)CNC(=O)[C@H](CC(C)C)NC(=O)[C@H](CC(C)C)NC(=O)[C@H](Cc1ccc(O)cc1)NC(=O)CNC(=O)[C@H](C)NC(=O)[C@H](CO)NC(=O)[C@H](CC(N)=O)NC(=O)[C@H](CC(C)C)NC(=O)[C@@H](NC(=O)[C@H](Cc1c[nH]c2ccccc12)NC(=O)CN)[C@@H](C)O)C(N)=O [Gal(1-13)-Std I] (H-GWTLNSAGYLLGP[dR]PKPQQ[dW]F[dW]LL-NH2)
2.9 nM	CC[C@H](C)[C@H](NC(=O)[C@H](C)NC(=O)[C@H](Cc1c[nH]cn1)NC(=O)[C@@H]1CCCN1C(=O)CNC(=O)[C@H](CC(C)C)NC(=O)[C@H](CC(C)C)NC(=O)[C@H](Cc1ccc(O)cc1)NC(=O)CNC(=O)[C@H](C)NC(=O)[C@H](CO)NC(=O)[C@H](CC(N)=O)NC(=O)[C@H](CC(C)C)NC(=O)[C@@H](NC(=O)[C@@H](N)Cc1c[nH]c2ccccc12)[C@@H](C)O)C(=O)N[C@@H](CC(=O)O)C(=O)N[C@@H](CC(N)=O)C(=O)N[C@@H](Cc1c[nH]cn1)C(=O)N[C@@H](CCCNC(=N)N)C(=O)N[C@@H](CO)C(=O)N[C@@H](Cc1ccccc1)C(=O)N[C@@H](CO)C(=O)N[C@@H](CC(=O)O)C(=O)N[C@@H](CCCCN)C(=O)N[C@@H](Cc1c[nH]cn1)C(=O)NCC(=O)N[C@@H](CC(C)C)C(=O)N[C@H](C(N)=O)[C@@H](C)O [Galanin Porcine 2-29]
